Residues, ends and D or L forms follow the SMILES beside them. *: point of attachment. Cbz = O=C(OCc1ccccc1)*; CH2F = FC*
What was measured:
CD3+CD19+ T cells = assay: In vitro exposure to AP1903 of patient CD3+CD19+ T cells 5 months after treatment; type: cell-based, human; conditions: patient 2, FACS and quantitative PCR
[1] = cited from earlier work
[2] = test system: iCasp9M.IRES.IL-12-transduced cells; assay: IL-12 ELISA of culture supernatant of iCasp9M.IRES.IL-12-transduced EBV-CTLs after CID; type: cell-based, human; conditions: after 10 nM CID; detection limit 7.8 pg/mL
[3] = test system: iCasp9M.IRES.GFPhigh-transduced CTLs; assay: SCID mouse-human xenograft model: human CD3+/GFP+ T cells in tumors after CID; type: in vivo; conditions: single dose of CID (50 μg AP20187 intraperitoneally); tumors analyzed three days later; versus carrier; listed as dimerizer
[4] = test system: gene-modified allodepleted cells; assay: Induction of apoptosis with AP20187 in gene-modified allodepleted cells (annexin V/7-AAD); type: cell-based, human
Method: (§1) Suicide gene functionality was assessed by adding a small molecule synthetic homodimerizer, AP20187 (Ariad Pharmaceuticals; Cambridge, Mass.), at 10 nM final concentration the day following CD19 immunomagnetic selection. Cells were stained with annexin V and 7-amino-actinomycin (7-AAD)(BD Pharmingen) at 24 hours and analyzed by flow cytometry. Cells negative for both Annexin V and 7-AAD were considered viable, cells that were annexin V positive were apoptotic, and cells that were both annexin V and 7-AAD positive were necrotic. The percentage killing induced by dimerization was corrected for baseline viability as follows: Percentage killing=100%−(% Viability in AP20187-treated cells÷% Viability in nontreated cells).
Cells were maintained in T cell medium containing 50 U/ml IL-2 until 22 days after transduction. A portion of cells was reactivated on 24-well plates coated with […] OKT3 and 1 μg/ml anti-CD28 (Clone CD28.2, BD Pharmingen, San Jose, Calif.) for 48 to 72 hours. CD19 expression and suicide gene function in both reactivated and non-reactivated cells were measured on day 24 or 25 post transduction.

non-transduced cells = assay: Viability of non-transduced cells with AP20187; type: cell-based, human; conditions: non-transduced cells (n=6)
Method: as §1
The day following immunomagnetic selection, 10 nM of the chemical inducer of dimerization, AP20187, was added to induce apoptosis, which appeared within 24 hours. […] Killing efficiency after correction for baseline viability was about 92.9%±3.8%. Large-scale CD19 selection produced cells that were killed with similar efficiency as small-scale selection: mean viability with and without AP20187, and percentage killing, in large and small scale were about 3.9%, about 84.0%, about 95.4% (n=3) and about 6.6%, about 79.3%, about 91.4% (n=5) respectively. […]

[5] = test system: EBV-specific and CMV-specific T cells; assay: Pentamer analysis of virus-specific T cells after AP20187 treatment of allostimulated cells; type: cell-based, human; conditions: 3 weeks post transduction; 4 days allogeneic PBMC; 10 nM AP20187
Method: In some experiments, cells also were cultured for 3 weeks post transduction and stimulated with 30G-irradiated allogeneic PBMC at a responder:stimulator ratio of 1:1. After 4 days of co-culture, a portion of cells was treated with 10 nM AP20187. Killing was measured by annexin V/7-AAD staining at 24 hours, and the effect of dimerizer on bystander virus-specific T cells was assessed by pentamer analysis on AP20187-treated and untreated cells.
An observation of note was that many virus-specific T cells were spared when dimerizer was used to deplete gene-modified cells that have been re-activated with allogeneic PBMC, rather than by non-specific mitogenic stimuli. […] Gene-modified allodepleted cells were maintained in culture for 3 weeks post-transduction to allow transgene down-modulation. Cells were stimulated with allogeneic PBMC for 4 days, following which a portion was treated with 10 nM AP20187. The frequency of EBV-specific T cells (see FIG. 14A) and CMV-specific T cells (see FIG. 14B) were quantified by pentamer analysis before allostimulation, after allostimulation, and after treatment of allostimulated cells with dimerizer. The percentage of virus-specific T cells decreased after allostimulation. Following treatment with dimerizer, virus-specific T cells were partially and preferentially retained.

iCasp9-transduced MSCs = assay: Apoptosis of undifferentiated iCasp9-transduced MSCs after CID (annexin V-PE/7-AAD FACS); type: cell-based, human
Method: Undifferentiated MSCs. The chemical inducer of dimerization (CID) (AP20187; ARIAD Pharmaceuticals, Cambridge, Mass.) was added at 50 nM to iCasp9-transduced MSCs cultures in complete medium. Apoptosis was evaluated 24 hours later by FACS analysis, after cell harvest and staining with annexin V-PE and 7-AAD in annexin V binding buffer (BD Biosciences, San Diego, Calif.). Control iCasp9-transduced MSCs were maintained in culture without exposure to CID.

[6] = test system: iCasp9-ΔCD19-transduced MSCs; assay: In vivo killing of iCasp9-transduced MSCs in SCID mice (luminescence imaging, qPCR); parameters: species or system mouse
[7] = test system: F-Casp9M.I.GFPhigh-transduced T cells; assay: Annexin-V/7-AAD staining and microscopy of F-Casp9M.I.GFPhigh-transduced T cells after CID; type: cell-based, human; conditions: zVAD-fmk 100 μM for 1 hour prior to adding CID
[8] = two injections of 50 μg of CID 24 hours apart, seven days after implantation

SMILES: CC[C@H](C(=O)N1CCCC[C@H]1C(=O)O[C@H](CCc1ccc(OC)c(OC)c1)c1cccc(OCC(=O)NCCNC(=O)COc2cccc([C@@H](CCc3ccc(OC)c(OC)c3)OC(=O)[C@@H]3CCCCN3C(=O)[C@@H](CC)c3cc(OC)c(OC)c(OC)c3)c2)c1)c1cc(OC)c(OC)c(OC)c1 (relative stereo) [AP1903, 2-Piperidinecarboxylic acid, 1-[(2S)-1-oxo-2-(3,4,5-trimethoxyphenyl)butyl]-, 1,2-ethanediylbis[imino(2-oxo-2,1-ethanediyl)oxy-3,1-phenylene[(1R)-3-(3,4-dimethoxyphenyl)propylidene]]ester, [2S-[1(R*),2R[S[S*[1(R*),2R*]]]]]-(9Cl)]
- sensitivity of CD3+CD19+ cells to AP1903 in vitro (CD3+CD19+ T cells): retain sensitivity
- mean Cmax / maximal plasma level ([1]; 0.01-1.0 mg/kg dose range, IV infusion over 2 hours): 10 to 1275 ng/mL
- plasma levels versus dose ([1]; 0.01-1.0 mg/kg): directly proportional to dose
- adverse event considered possibly related to AP1903 ([1]; 1 volunteer at 1.0 mg/kg, 3 minutes after start of infusion, resolved after 32 minutes): vasodilatation
- serious adverse events ([1]; Phase 1 study in volunteers): No serious adverse events
- incidence of adverse events ([1]; following each treatment, all mild in severity): very low

SMILES: CC[C@H](C(=O)N1CCCC[C@H]1C(=O)O[C@H](CCc1ccc(OC)c(OC)c1)c1cccc(OCC(=O)NCC(CNC(=O)COc2cccc([C@@H](CCc3ccc(OC)c(OC)c3)OC(=O)[C@@H]3CCCCN3C(=O)[C@@H](CC)c3cc(OC)c(OC)c(OC)c3)c2)CN(C)C)c1)c1cc(OC)c(OC)c(OC)c1 [AP20187]
- IL-12 in the supernatant [2]: < 7.8 pg/mL
- reduction in the number of human CD3+/GFP+ T cells [3]: more than 99%
- cells remaining viable ([4]; 10 nM AP20187, day after CD19 selection, 24 hours): about 5.5%±2.5%
- apoptosis / elimination of iCasp9-modified T cells after dimerizer (summary statements) ([4]; listed as small-molecule dimerizer): > 90%
- viability with AP20187 (non-transduced cells): about 86%±9%
- viral reactive subpopulations (HLA pentamers, EBV and CMV) [5]: spares (and thereby enriches) viral reactive subpopulations
- annexin positive, iCasp9-CD19-positive cells (iCasp pos/CID) (iCasp9-transduced MSCs; 50 nM CID, 24 hours, FACS example): Ninety-three
- selected cells apoptotic after exposure to CID (iCasp9-transduced MSCs; magnetic immunoselection of iCasp9-CD19-positive cells): More than 95%
- killing / depletion of iCasp9-positive cells (qPCR) ([6]; 1:1 mixture of doubly and singly transduced MSCs, two doses of CID): > 99%
- proportion of surviving iCasp9-positive cells ([6]; mouse, in vivo): 0.7 % of the original population
- luminescence signal of MSCs transduced with iCasp9 [6, 8]: quickly killed
- luminescence signal of cells negative for iCasp9 [6, 8]: not affected

SMILES: COC(=O)C[C@H](NC(=O)[C@H](C)NC(=O)[C@@H](NC(=O)OCc1ccccc1)C(C)C)C(=O)CF [zVAD-fmk] (Cbz-Val-Ala-Asp(OMe)-CH2F)
- CID-induced apoptosis [7]: inhibited

— patent US9393292B2, “Methods for inducing selective apoptosis” (priority 2010, dated 2016)
